Paper PMC4279175, “Mechanisms Underlying the Antinociceptive, Antiedematogenic, and Anti-Inflammatory Activity of the Main Flavonoid from Kalanchoe pinnata” (Evidence-based Complementary and Alternative Medicine : eCAM, 2014)

Columns and labels:
COX-2 = target: T1, COX-2 (Ovis aries, UniProt P79208); assay: colorimetric COX (ovine) inhibitor screening assay kit (Cayman […]); […] maximum inhibition at […]; type: biochemical
T1 construct: gene PTGS2
T1 sequence (P79208 17-603): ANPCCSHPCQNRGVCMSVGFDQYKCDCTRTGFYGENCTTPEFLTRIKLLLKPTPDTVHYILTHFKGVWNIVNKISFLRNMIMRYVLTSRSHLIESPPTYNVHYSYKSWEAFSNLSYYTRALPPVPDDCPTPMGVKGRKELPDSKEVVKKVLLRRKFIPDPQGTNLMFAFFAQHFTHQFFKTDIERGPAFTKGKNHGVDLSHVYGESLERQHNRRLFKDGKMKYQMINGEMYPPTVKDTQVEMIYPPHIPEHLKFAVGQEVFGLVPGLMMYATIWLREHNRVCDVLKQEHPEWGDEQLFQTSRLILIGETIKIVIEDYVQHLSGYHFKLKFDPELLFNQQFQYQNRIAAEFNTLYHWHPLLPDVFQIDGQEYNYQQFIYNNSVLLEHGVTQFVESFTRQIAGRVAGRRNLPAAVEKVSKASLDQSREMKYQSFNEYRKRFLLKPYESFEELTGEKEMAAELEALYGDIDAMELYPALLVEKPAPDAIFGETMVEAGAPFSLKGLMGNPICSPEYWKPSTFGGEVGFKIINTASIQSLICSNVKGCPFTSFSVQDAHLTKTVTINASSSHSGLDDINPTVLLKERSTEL

COX-1 = target: T2, COX-1 (Ovis aries, UniProt P05979); assay: colorimetric COX (ovine) inhibitor screening assay kit (Cayman […]); type: biochemical
T2 construct: gene PTGS1
T2 sequence (P05979 25-600): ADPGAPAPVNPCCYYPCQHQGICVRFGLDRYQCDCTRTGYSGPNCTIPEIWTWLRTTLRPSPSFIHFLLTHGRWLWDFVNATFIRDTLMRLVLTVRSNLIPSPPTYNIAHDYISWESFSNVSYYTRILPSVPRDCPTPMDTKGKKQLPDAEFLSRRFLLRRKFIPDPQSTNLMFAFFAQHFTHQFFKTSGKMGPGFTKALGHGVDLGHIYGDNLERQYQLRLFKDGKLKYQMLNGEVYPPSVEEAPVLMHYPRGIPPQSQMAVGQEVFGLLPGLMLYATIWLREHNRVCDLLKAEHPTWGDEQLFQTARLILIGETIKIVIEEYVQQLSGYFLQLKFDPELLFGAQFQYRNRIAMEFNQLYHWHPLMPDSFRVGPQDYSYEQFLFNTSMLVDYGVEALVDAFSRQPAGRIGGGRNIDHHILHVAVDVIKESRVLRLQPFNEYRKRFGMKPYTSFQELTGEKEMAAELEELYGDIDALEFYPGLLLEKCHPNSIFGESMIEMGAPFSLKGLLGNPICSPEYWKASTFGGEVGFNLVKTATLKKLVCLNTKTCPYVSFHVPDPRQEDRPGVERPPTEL

Structure (SMILES): C[C@@H]1O[C@@H](Oc2c(-c3ccc(O)c(O)c3)oc3cc(O)cc(O)c3c2=O)[C@H](O[C@@H]2OC[C@H](O)[C@H](O)[C@H]2O)[C@H](O)[C@H]1O [KPFV, quercetin 3-O-α-L-arabinopyranosyl (1 → 2) α-L-rhamnopyranoside]
- IC50 (COX-2): > 84 µM
- IC50 (COX-1): 38 µM
